According to patent US12624044B2, “SMARCA degraders and uses thereof” (Kymera Therapeutics, Inc., priority 2019, dated 2026):

Tests used:
SMARCA2 = SMARCA2 (Homo sapiens, UniProt P51531); assay: MSD SMARCA2 degradation in A549 cell line; assay type: cell-based; conditions: 24 h; for Dmax: A549, A549 cells; for DC50: A549 cells, read-out: SMARCA2 MSD A549 degradation 24 h: Average external-Abs DC50
Method in brief: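 SMARCA2 remaining was measured by MSD electrochemiluminescence on RIPA lysates (anti-SMARCA2 plus SULFO-TAG anti-rabbit). Prior exposure: 24 h of A549 cells to a 10-point, 3-fold dilution series topping at 1000 nM final; Dmax % given as graded codes.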

SMARCA4 = target: T1, SMARCA4 (Homo sapiens, UniProt P51532); assay: SMARCA4 Western blot MV4-11 degradation; assay type: cell-based; conditions: 24 h; for Dmax: MV4-11, MV4-11 cells, read-out: SMARCA4 WB MV411 degradation 24 h: Average Dmax %; for DC50: MV4-11 cells, read-out: SMARCA4 WB MV411 degradation 24 h: Average external-Abs DC50
T1 construct: SMARCA2 and SMARCA4 protein degradation in MV4-11 cells; endogenous in cells; host or cells: MV4-11
T1 sequence (P51532 whole entry): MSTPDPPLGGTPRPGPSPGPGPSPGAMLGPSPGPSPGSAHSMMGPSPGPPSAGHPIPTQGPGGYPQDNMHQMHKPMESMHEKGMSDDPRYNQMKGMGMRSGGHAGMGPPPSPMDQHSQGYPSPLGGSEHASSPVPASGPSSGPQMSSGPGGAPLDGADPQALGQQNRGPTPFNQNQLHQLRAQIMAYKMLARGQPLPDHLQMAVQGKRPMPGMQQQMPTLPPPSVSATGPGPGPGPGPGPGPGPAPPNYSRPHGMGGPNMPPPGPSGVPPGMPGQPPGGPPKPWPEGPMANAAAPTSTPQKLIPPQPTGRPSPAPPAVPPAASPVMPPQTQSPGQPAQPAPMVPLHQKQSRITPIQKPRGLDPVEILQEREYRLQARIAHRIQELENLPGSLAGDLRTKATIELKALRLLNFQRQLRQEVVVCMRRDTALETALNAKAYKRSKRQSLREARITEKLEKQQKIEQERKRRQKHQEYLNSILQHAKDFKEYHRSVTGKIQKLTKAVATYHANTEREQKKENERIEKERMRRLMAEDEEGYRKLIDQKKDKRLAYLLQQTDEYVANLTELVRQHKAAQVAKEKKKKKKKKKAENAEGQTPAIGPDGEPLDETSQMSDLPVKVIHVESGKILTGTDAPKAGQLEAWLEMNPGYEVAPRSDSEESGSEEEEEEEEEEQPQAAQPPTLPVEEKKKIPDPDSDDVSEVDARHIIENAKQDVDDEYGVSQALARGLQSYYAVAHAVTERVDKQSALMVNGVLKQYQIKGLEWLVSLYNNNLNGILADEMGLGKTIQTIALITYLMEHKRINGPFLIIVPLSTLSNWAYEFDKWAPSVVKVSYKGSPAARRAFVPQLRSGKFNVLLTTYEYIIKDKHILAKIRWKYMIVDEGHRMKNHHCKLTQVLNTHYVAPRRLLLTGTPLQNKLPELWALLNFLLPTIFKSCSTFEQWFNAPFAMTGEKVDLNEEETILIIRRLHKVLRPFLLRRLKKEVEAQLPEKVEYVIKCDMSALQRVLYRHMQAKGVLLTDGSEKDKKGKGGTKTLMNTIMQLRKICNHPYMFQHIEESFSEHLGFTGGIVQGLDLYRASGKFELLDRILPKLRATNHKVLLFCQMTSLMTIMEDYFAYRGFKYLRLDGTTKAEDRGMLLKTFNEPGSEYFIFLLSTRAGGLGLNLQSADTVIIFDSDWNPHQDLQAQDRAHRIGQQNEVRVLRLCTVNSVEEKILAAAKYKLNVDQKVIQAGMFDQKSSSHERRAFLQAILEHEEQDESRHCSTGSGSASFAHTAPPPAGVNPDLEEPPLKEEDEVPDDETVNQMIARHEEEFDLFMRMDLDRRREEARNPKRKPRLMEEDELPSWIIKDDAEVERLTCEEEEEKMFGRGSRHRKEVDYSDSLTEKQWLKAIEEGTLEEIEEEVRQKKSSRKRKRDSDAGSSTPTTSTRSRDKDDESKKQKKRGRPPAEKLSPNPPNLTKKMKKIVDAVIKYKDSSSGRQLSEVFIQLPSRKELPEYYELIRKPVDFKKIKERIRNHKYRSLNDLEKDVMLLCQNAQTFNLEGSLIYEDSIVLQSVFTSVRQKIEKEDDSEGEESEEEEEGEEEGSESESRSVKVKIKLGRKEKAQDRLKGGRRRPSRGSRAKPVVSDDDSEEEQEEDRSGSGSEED
Method in brief: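 MV4-11 cells treated with compound for 24 h, lysed in RIPA with protease/phosphatase inhibitors, and SMARCA2 and SMARCA4 (BRG1) levels assessed by Western blot with β-actin loading control and LI-COR fluorescent read-out. Maximal degradation (Dmax %) after 24 h binned into letter codes.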

Chain of SMARCA2 (P51531 whole entry): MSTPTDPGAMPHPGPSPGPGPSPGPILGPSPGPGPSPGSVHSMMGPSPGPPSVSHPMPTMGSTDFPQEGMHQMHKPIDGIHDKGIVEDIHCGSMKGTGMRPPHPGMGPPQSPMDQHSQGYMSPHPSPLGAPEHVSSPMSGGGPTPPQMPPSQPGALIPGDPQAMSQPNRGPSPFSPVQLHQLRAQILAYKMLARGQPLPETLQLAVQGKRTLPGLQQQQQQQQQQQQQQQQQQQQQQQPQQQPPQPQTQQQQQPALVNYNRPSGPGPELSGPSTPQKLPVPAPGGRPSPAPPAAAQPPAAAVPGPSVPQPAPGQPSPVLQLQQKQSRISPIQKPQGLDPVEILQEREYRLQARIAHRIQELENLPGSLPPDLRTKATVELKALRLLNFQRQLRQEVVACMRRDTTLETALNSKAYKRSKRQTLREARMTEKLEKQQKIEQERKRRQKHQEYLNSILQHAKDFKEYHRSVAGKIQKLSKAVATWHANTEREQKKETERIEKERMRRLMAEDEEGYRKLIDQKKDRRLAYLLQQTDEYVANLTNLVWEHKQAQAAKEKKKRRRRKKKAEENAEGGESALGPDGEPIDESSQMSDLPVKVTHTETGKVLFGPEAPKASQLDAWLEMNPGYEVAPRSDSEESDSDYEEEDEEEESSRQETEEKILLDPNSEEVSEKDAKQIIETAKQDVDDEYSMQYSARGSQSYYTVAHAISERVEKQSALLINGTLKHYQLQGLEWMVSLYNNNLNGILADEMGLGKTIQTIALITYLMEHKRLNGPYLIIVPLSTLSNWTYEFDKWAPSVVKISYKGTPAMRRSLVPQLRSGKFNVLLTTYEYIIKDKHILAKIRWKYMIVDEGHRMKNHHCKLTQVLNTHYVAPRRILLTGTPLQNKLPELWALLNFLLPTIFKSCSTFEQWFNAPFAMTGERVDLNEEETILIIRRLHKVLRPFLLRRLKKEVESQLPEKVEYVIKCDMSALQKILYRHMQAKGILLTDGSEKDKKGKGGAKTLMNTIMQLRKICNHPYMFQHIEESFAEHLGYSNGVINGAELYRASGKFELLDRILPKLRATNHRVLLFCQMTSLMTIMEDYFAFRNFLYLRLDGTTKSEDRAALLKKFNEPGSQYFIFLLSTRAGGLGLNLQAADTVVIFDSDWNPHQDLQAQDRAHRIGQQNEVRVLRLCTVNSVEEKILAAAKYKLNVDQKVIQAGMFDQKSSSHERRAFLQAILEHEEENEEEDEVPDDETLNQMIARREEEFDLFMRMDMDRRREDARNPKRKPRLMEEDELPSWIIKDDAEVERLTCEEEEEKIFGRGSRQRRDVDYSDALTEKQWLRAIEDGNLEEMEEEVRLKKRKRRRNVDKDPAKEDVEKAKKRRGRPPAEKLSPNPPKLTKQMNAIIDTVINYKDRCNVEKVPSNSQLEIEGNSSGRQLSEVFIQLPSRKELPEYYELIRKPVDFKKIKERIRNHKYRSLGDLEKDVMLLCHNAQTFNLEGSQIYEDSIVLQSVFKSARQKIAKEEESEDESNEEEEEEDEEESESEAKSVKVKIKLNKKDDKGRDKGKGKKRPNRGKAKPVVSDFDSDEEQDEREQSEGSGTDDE

| Compound | Dmax (SMARCA2) [%] | DC50 (SMARCA2) [nM] | Dmax (SMARCA4) [%] | DC50 (SMARCA4) [nM] |
| --- | --- | --- | --- | --- |
| Cn1c(=O)n(C2CCC(=O)NC2=O)c2ccc(CCCCCCCc3nccc(N4C5CCC4CN(c4cc(-c6ccccc6O)nnc4N)C5)n3)cc21 (stereo not drawn) [I-287, 3-(5-(7-(4-(3-(3-amino-6-(2-hydroxyphenyl)pyridazin-4-yl)-3,8-diazabicyclo[3.2.1]octan-8-yl)pyrimidin-2-yl)heptyl)-3-methyl-2-oxo-2,3-dihydro-1H-benzo[d]imidazol-1-yl)piperidine-2,6-dione] | 70 to 90 | 100 to 500 | 50 to 70 | > 1000 |
| Cc1ncsc1-c1ccc(CNC(=O)[C@@H]2C[C@@H](O)CN2C(=O)[C@@H](NC(=O)[C@H]2CC[C@@H](c3cnc(N4C5CCC4CN(c4cc(-c6ccccc6O)nnc4N)C5)nc3)CC2)C(C)(C)C)cc1 [I-336] | > 90 | 100 to 500 | > 90 | < 100 |
| Cc1ncsc1-c1ccc(CNC(=O)[C@@H]2C[C@@H](O)CN2C(=O)[C@@H](NC(=O)[C@H]2CC[C@H](c3cnc(N4C5CCC4CN(c4cc(-c6ccccc6O)nnc4N)C5)nc3)CC2)C(C)(C)C)cc1 [I-337, (2S,4R)-1-((2S)-2-((1r,4S)-4-(2-(3-(3-amino-6-(2-hydroxyphenyl)pyridazin-4-yl)-3,8-diazabicyclo[3.2.1]octan-8-yl)pyrimidin-5-yl)cyclohexanecarboxamido)-3,3-dimethylbutanoyl)-4-hydroxy-N-(4-(4-methylthiazol-5-yl)benzyl)pyrrolidine-2-carboxamide] | > 90 | < 100 | > 90 | < 100 |
| Cc1ncsc1-c1ccc(CNC(=O)[C@@H]2C[C@@H](O)CN2C(=O)[C@@H](NC(=O)[C@H]2CC3(C2)C[C@H](N2CCC(n4cc(-c5cc(-c6ccccc6O)nnc5N)cn4)CC2)C3)C(C)(C)C)cc1 (stereo partly drawn) [I-389] | > 90 | 100 to 500 | 70 to 90 | < 100 |
| Cc1ncsc1-c1ccc(CNC(=O)[C@@H]2C[C@@H](O)CN2C(=O)[C@@H](NC(=O)[C@H]2CC[C@@H](CN3CCC(n4cc(-c5cc(-c6ccccc6O)nnc5N)cn4)CC3)CC2)C(C)(C)C)cc1 [I-402] | 70 to 90 | 100 to 500 | < 50 | > 1000 |
| Cc1ncsc1-c1ccc(CNC(=O)[C@@H]2C[C@@H](O)CN2C(=O)[C@@H](NC(=O)[C@H]2CC[C@H](CN3CCC(n4cc(-c5cc(-c6ccccc6O)nnc5N)cn4)CC3)CC2)C(C)(C)C)cc1 [I-403] | > 90 | 100 to 500 | < 50 | 501 to 1000 |
